From patent US20220267374A1, “IMMUNITY INDUCER AND PHARMACEUTICAL COMPOSITION FOR PREVENTING OR TREATING AGING-RELATED DISEASES” (priority 2019, published 2022) come the findings set out here.

Ends that are not written are not given here.

The test system of one experiment is p19^Arf. In words: Analysis of p19Arf-dependent luciferase activity. Format: in vivo, p19^Arf-DTR-Luc mouse. Particulars: HFD-fed p19Arf-DTR-Luc mouse, 21 weeks of age, s.c. vaccination at 13 weeks of age; vs control vaccine; FIG. 2F.
In a further experiment the test system is arteriosclerotic plaque. Briefly: Detection of arteriosclerotic plaque (Oil Red O staining). It counts as in vivo, ApoE/Gpnmb-DTR mice. Particulars: HFD from 4 to 16 weeks of age, s.c. vaccination at 8 weeks of age; vs control vaccine; FIGS. 2J, 2K. How it is done: Arteriosclerotic plaques were detected by Oil Red O staining. Briefly, autopsy removed adventitial fat to open the entire aorta and fixed the aorta flat in 4 v/v % paraformaldehyde at room temperature for 12 hours. Subsequently, the fixed aorta was washed by immersing in 60 v/v % isopropyl alcohol for 1 minute. Subsequently, the aorta was incubated at 37° C. for 15 minutes in 0.5% of Oil Red O (Sigma-Aldrich) solution (diluted with 60 v/v % isopropyl alcohol). After staining, the sample was briefly immersed in a 60 v/v % isopropyl alcohol solution and then washed with double distilled water. Atherosclerotic lesions were stained red with Oil Red O (refer to FIG. 1G). For the Oil Red O stained region, the plaque region was quantified by Image-J software (refer to FIG. 1H). […]
Detection of arteriosclerotic plaque and analysis of Gpnmb-dependent luciferase activity were performed using the same method as in “6.” and “2.” of Reference Example 1, except that ApoE/Gpnmb-DTR mice (16 weeks of age) bred while feeding HFD for 12 weeks from 4 to 16 weeks of age and administered with peptide vaccine 1 or a control vaccine by subcutaneous injection at a time point of 8 weeks of age were used (refer to FIG. 2J). The Oil Red O stained region was quantified by Image-J software (refer to FIG. 2K). […]

In a further experiment the test system is GPNMB protein. In words: Western blotting analysis of adipose tissue. It counts as in vivo, C57BL/6 mice. The following applies: HFD-fed mice, 16 weeks of age, s.c. vaccination at 8 weeks of age, vs control vaccine, FIGS. 2C, 2D. The procedure: For adipose tissue collected from C57BL/6 mice (16 weeks of age) bred by feeding HFD from 4 weeks of age and administered with peptide vaccine 1 or a control vaccine by subcutaneous injection at a time point of 8 weeks of age, whole-cell lysates were prepared in lysis buffer (containing 10 mmol/L of Tris-HCl (pH 8), 140 mmol/L of sodium chloride, 5 mmol/L of EDTA, 0.025% of NaN3, 1 w/v % of Triton X-100, 1 w/v % of deoxycholic acid, 0.1 w/v % of SDS, 1 mmol/L of phenylmethylsulfonyl fluoride (PMSF), 5 μg/mL of leypeptin, 2 μg/mL of aprotinin, 50 mmol/L of NaF, and 1 mmol/L of […]). Then the lysates (40 to 50 μg) was separated by SDS-PAGE, the protein was transferred to a PVDF membrane (Millipore), and this was incubated with a primary antibody, followed by horseradish peroxidase (Jackson)-binding anti-rabbit immunoglobulin G (Jackson ImmunoResearch). GPNMB and β-actin were detected by enhanced chemiluminescence (Amersham). As a primary antibody, an anti-GPNMB antibody (AF2330, R & D Systems) (1/1000 dilution) was used, and as a control, anti-β-actin antibody (#4967, Cell Signaling) (1/5000 dilution) was used. As a secondary antibody, peroxidase-binding AffiniPure goat anti-rabbit IgG (H+L) (111-035-003, Jackson ImmunoResearch) (1/10000 dilution) was used. […]
(In general: Immunoblotting shows a protein as a band on a membrane.)

In another experiment the test system is GPNMB-positive cells. Briefly: Analysis of Gpnmb-dependent luciferase activity (in vivo IVIS imaging). The arrangement: species or system Gpnmb-DTR mouse. The following applies: HFD-fed Gpnmb-DTR mouse, 16 weeks of age, s.c. vaccination at 8 weeks of age; vs control vaccine; FIG. 2B. How it is done: Gpnmb-DTR mouse bred by feeding normal diet or HFD for 4 weeks, and Gpnmb-DTR mouse bred by feeding HFD for 4 weeks, and then injecting DT (50 μg/kg body weight) at 2-week intervals (12 weeks of age and 14 weeks of age) intraperitoneally twice while continuing to feed HFD (16 weeks of age) were subjected to in vivo luciferase imaging analysis using the IVIS imaging system (Perkin Elmer). Mice were shaved ventrally, anesthetized with isoflurane (Wako Pure Chemicals Industries), and injected intraperitoneally with luciferin (150 mg/kg body weight) according to the manufacturer's instructions (Vivo-Glo; Promega). Luciferase activity was monitored 5 minutes after luciferin administration. Signals were analyzed using Living Image software (Perkin Elmer) to quantify luciferase activity. In FIG. 1B, “Before” is a Gpnmb-DTR mouse before HFD was fed (6 weeks of age), “HFD” is a Gpnmb-DTR mouse that was fed with HFD from 6 weeks of age and bred for 6 weeks (12 weeks of age), and “After DT” is a Gpnmb-DTR mouse that was bred by feeding HFD for 4 weeks and then injecting DT (50 μg/kg body weight) at 2-week intervals (12 weeks of age and 14 weeks of age) intraperitoneally twice while continuing to feed HFD (16 weeks of age). […]

For “RRGDGRWKD (also: KLH conjugate; listed as Mus musculus) [peptide vaccine 1, peptide of positions 63 to 71 of mouse GPNMB protein]”, the “p19Arf-dependent luciferase activity in visceral adipose tissue” value in the experiment on p19^Arf is reported as “decrease”. Also, the “development of atheroma (arteriosclerotic plaque, Oil Red O stained region)” value with arteriosclerotic plaque is “significantly decreased”. The “expression amount of GPNMB protein” value in the experiment on GPNMB protein was “decreased”. The Gpnmb-dependent luciferase activity result in the experiment with GPNMB-positive cells is recorded as “decreased”.
